Measurements published in PubChem BioAssay AID720570 (Broad Institute, 2013).
Several values for one entry are separate records, joined by “and”; a condition that tells them apart may be missing. Identical values can stand only once.

Test system: TC71 Ewing sarcoma viability, CellTiter-Glo ATP, 72 h
Assay: TC71 Ewing sarcoma cell killing, confirmation, luminescence, cherry-picked samples, retest (AID 720570)

Row | SMILES | AC35
1 | C[C@H]1CN([C@@H](C)CO)S(=O)(=O)c2ccc(C#Cc3ccncc3)cc2O[C@@H]1CN(C)C(=O)Nc1ccc2c(c1)OCO2 | 4.14 µM
2 | COc1cc(-c2cnc3c(NC=O)cc(-c4cccc(NC(C)=O)c4)cn23)cc(OC)c1OC | 0.385 µM
3 | O=C1NC(=O)N(Cc2ccco2)C(=O)/C1=C/C=C/c1ccco1 | 12.5 µM
4 | CC(C)(C)c1ccc(Oc2ccc(NC(=O)c3ccccc3C(=O)O)cn2)cc1 | 10.3 µM
5 | C[C@H]1CN([C@@H](C)CO)C(=O)c2cc(NC(=O)C3CCCCC3)ccc2O[C@H]1CN(C)Cc1ccc(C(=O)Nc2ccccc2N)cc1 | 11.1 µM
6 | Oc1c(C(c2ccc(Cl)cc2)N2CCCC2)cc(Cl)c2cccnc12 (stereo not drawn) | 6.32 µM
7 | CN(C)c1ncnc2c1ccn2C1OC(CO)C(O)C1O (stereo not drawn) | 7.06 µM
8 | C[C@H]1CN([C@@H](C)CO)C(=O)Cc2cc(NC(=O)CCCCCC(=O)Nc3ccccc3N)ccc2O[C@H]1CN(C)Cc1ccc(C(F)(F)F)cc1 | 11.6 µM
9 | C[C@@H]1CN([C@@H](C)CO)C(=O)Cc2cc(NC(=O)C3CCCCC3)ccc2O[C@H]1CN(C)Cc1ccc(C(=O)Nc2ccccc2N)cc1 | 15.6 µM
10 | C[C@H](O)C#Cc1ccc2c(c1)O[C@@H](CN(C)Cc1ccc(-c3ccccc3)cc1)[C@H](C)CN([C@@H](C)CO)S2(=O)=O | 3.82 µM and 4.62 µM
11 | CC[C@@H]1C[C@H]2CC[C@H](O2)[C@H](C)C(=O)O[C@@H](C)C[C@@H]2CC[C@@H](O2)[C@@H](C)C(=O)O[C@H](C)C[C@H]2CC[C@H](O2)[C@H](C)C(=O)O[C@@H](C)C[C@@H]2CC[C@@H](O2)[C@@H](C)C(=O)O1 | 0.0639 µM
12 | O=C(N/N=C/c1cnc(N2CCCCC2)s1)c1ccc(C(F)(F)F)cc1 | 20.9 µM
13 | CN1C(=O)c2cc(NC(=O)c3ccc(Cl)cc3)ccc2OC[C@@H]2O[C@@H](CC(=O)NCc3cccc(F)c3)CC[C@H]21 | 5.21 µM
14 | C[C@@H]1CN([C@H](C)CO)C(=O)c2cc(NS(=O)(=O)c3ccc(Cl)cc3)ccc2O[C@@H]1CN(C)Cc1ccc(Cl)c(Cl)c1 | 21.5 µM
15 | CCc1nc(N)nc(N)c1-c1ccc(Cl)c(N=[N+]=[N-])c1 | 3.56 µM
16 | O=C(/C=C/c1cc(Br)ccc1O)c1ccco1 | 16.7 µM
17 | C=C(C(=O)c1ccccc1)C(C)C(=C)C(=O)c1ccccc1 | 11.1 µM
18 | COc1cccc(Sc2ccccc2/C=N/NC(N)=O)c1 | 3.12 µM
19 | C[C@H](CO)N1C[C@H](C)[C@H](CN(C)Cc2ccc(C(=O)Nc3ccccc3N)cc2)Oc2c(cccc2N(C)C)C1=O | 17.1 µM
20 | O=C1CCCC2=C1C(c1ccccn1)Nc1ccc(C(=O)c3ccccc3)cc1N2 (stereo not drawn) | 17.4 µM
21 | Cc1ccc2c(=O)n3c(nc2c1)C(Cc1ccc(O)cc1)NC(=O)c1cc2ccccc2cc1-3 (stereo not drawn) | 9.76 µM

Row | SMILES | AC35
22 | C[C@@H]1CN([C@H](C)CO)C(=O)Cc2cc(N(C)C)ccc2O[C@H]1CN(C)Cc1ccc(C(=O)Nc2ccccc2N)cc1 | 13.6 µM
23 | Cc1ccccc1S(=O)(=O)N1CC[C@@H]2[C@@H](CO)Nc3ccc(-c4ccc(C#N)cc4)cc3[C@@H]21 | 4.8 µM
24 | Oc1c(Cl)cc(Cl)c2cccnc12 | 20.7 µM
25 | CC(=O)Nc1cccc(-c2ccnc3c2CC(C)(C(=O)NCc2ccc(N(C)C)cc2)O3)c1 (stereo not drawn) | 7.01 µM
26 | COc1cc2oc3cc(C#Cc4ccc(N)cc4)ccc3c(=O)c2cc1OC | 6.86 µM
27 | C=C1C(=O)OC2C1CCC(C)C1(O)C=CC(=O)C21C (stereo not drawn) | 12.6 µM
28 | C[C@@H]1CCCCO[C@H](CN(C)Cc2ccc(C(=O)Nc3ccccc3N)cc2)[C@@H](C)CN([C@@H](C)CO)C(=O)c2cc(NS(=O)(=O)c3ccc(Cl)cc3)ccc2O1 | 13.6 µM
29 | COC1C(O)C(C)OC(OC2C(Oc3cccc4c(O)c5c(=O)oc6ccc(C)c7c(=O)oc(c34)c5c67)OC(C)C(O)C2O)C1O (stereo not drawn) | 5.5 µM
30 | CCCCCCCCNC(C)C(O)c1ccc(SC(C)C)cc1 (stereo not drawn) | 12.1 µM
31 | COc1cccc(-c2cccc(-c3nc(C(=O)NCC(F)(F)F)cc4c3[C@H](CCO)N([S@@](=O)C(C)(C)C)C4)c2)c1 | 5.61 µM
32 | C[C@H](CO)N1C[C@H](C)[C@H](CN(C)Cc2ccc(Oc3ccccc3)cc2)Oc2ccc(NC(=O)CCCCCC(=O)Nc3ccccc3N)cc2CC1=O | 11.5 µM
33 | CC(C)=CCC/C(C)=C/CN1C(=O)N(c2ccc(F)cc2)[C@H]2C[C@@H](c3ccccc3)[C@@H](C)[C@@H](C(=O)N3CCOCC3)C[C@H]21 | 4.4 µM
34 | CC1(C(=O)NCc2ccco2)Cc2c(-c3cccc(C(N)=O)c3)ccnc2O1 (stereo not drawn) | 7.99 µM
35 | CC(C)(C)c1ccc(Oc2ccc(N)cn2)cc1 | 4.73 µM
36 | COc1ccc(CC(N)c2csc(NC(=O)Nc3cccc(C(F)(F)F)c3)n2)cc1 (stereo not drawn) | 19.1 µM
37 | CC12CCC(O)CC1CCC1C2CCC2(C)C(C3=CC(=O)OC3)CCC12O (stereo not drawn) | 1.17 µM
38 | C[C@H]1CN([C@@H](C)CO)C(=O)Cc2cc(NC(=O)CCCCCC(=O)Nc3ccccc3N)ccc2O[C@H]1CN(C)Cc1ccc(Oc2ccccc2)cc1 | 11.5 µM
39 | COc1ccc(OC)c(/C=C/c2ccnc3ccccc23)c1 | 2.31 µM
40 | C[C@@H]1CN([C@@H](C)CO)C(=O)c2cccc(NS(=O)(=O)c3ccc(F)cc3)c2O[C@@H]1CN(C)Cc1ccc(C(=O)Nc2ccccc2N)cc1 | 8.22 µM
41 | CC(=O)N1CCCC(c2cc(C(=O)Nc3ccccc3)no2)C1 (stereo not drawn) | 12.7 µM
42 | O=c1[nH]c(=O)n([C@H]2C[C@H](O)[C@@H](CO)O2)cc1F | 0.282 µM

Row | SMILES | AC35
43 | Cc1ccc(S(=O)(=O)Nc2ccc3c(c2)C(=O)N([C@H](C)CO)C[C@@H](C)[C@@H](CN(C)Cc2ccc(C(=O)Nc4ccccc4N)cc2)O3)cc1 | 11 µM
44 | COc1ccc([Si](C)(C)[C@H]2[C@H](CCO)O[C@@]3(C(=O)N(c4ccccc4)c4ccccc43)[C@@H]2C)cc1 | 12.8 µM
45 | O=C1NC(=S)NC(=O)C1=Cc1cccn1-c1ccc(O)cc1 | 22.2 µM
46 | O=c1[nH]c(=O)n(C2C[C@H](O)[C@@H](CO)O2)cc1C(F)(F)F (stereo partly drawn) | 2.59 µM
47 | Cc1cc2c(C(C)C)c(O)c(O)c(C=O)c2c(O)c1-c1c(C)cc2c(C(C)C)c(O)c(O)c(C=O)c2c1O | 5.02 µM
48 | CCN1/C(=C/C(C)=C/c2sc3ccccc3[n+]2CC)Sc2ccccc21 | 0.951 µM
49 | CC1=NN(c2ccc(C)cc2)C(=O)/C1=C\C=C\c1ccccc1 | 18.8 µM
50 | CCCC[C@@H]1Cc2[nH][nH]c(=O)c2[C@H](c2ccc3ccccc3c2)O1 | 15.2 µM
51 | C[C@]12CCC3C(CCC4=CC(O)CC[C@@]43/C=N/O)C1(O)CCC2C1=CC(=O)OC1 (stereo partly drawn) | 1.82 µM
52 | CC1(C)N=C(N)N=C(N)N1c1ccc(CCCCc2ccccc2)cc1 | 1.39 µM
53 | CN(C)c1ccc2c(c1)[C@@H]1C[C@@H](CC(=O)NCc3ccc(Oc4ccccc4)cc3)O[C@H](CO)[C@@H]1O2 | 14.3 µM
54 | Cc1c(Cc2ccc3c(c2)OCO3)sc(NC(=O)C(C)(C)C)c1C#N | 13.2 µM
55 | COc1ccc(OC)c(-c2nnc3n2N=C(c2ccc(OC)c(OC4CCOC4)c2)CS3)c1 (stereo not drawn) | 3.98 µM
56 | O=c1ccc2[n+]([O-])c3ccc(O)cc3oc-2c1 | 9.82 µM
57 | CCCCCCCCCCCCCCCCCCNc1ccn(C2OC(COP(=O)(O)OCC3OC(n4cc(F)c(=O)[nH]c4=O)CC3O)C(O)C2O)c(=O)n1 (stereo not drawn) | 2.77 µM
58 | c1ccc(Nc2nnc(-c3ccc4c(c3)OCO4)o2)cc1 | 12 µM
59 | O=C(Sc1cccc2cccnc12)c1ccccc1Br | 10.5 µM
60 | CN(C)CC1CCC/C(=C\c2ccc(OC(=O)c3ccc(Cl)cc3)cc2)C1=O (stereo not drawn) | 3.4 µM
61 | Oc1c(Cl)cc(Cl)c(Cl)c1Cc1c(O)c(Cl)cc(Cl)c1Cl | 3.22 µM
62 | Cc1ccc(N2C(=O)c3cccc4c(N)ccc(c34)C2=O)c2cccnc12 | 0.0977 µM
63 | O=C(NC1CCCC1)N1CCCCN2[C@@H](CO)[C@@H](c3ccc(/C=C/c4ccccc4)cc3)[C@@H]2C1 | 13.6 µM
